Assay results published in BindingDB's records for doi:10.1021/jm000455z (Kissei Pharmaceutical, 2001).

Test: Agonistic activity towards beta-3 adrenoceptor. Mean concentration required to produce 50% relaxation of detrusor before the addition in the ferret detrusor

| SMILES | EC50 [nM] |
| --- | --- |
| C[C@H](NCCc1cc(Cl)c(NCC(=O)O)cc1Cl)[C@H](O)c1ccc(O)cc1 | 61.7 |
| C[C@H](NCCc1ccc(NCC(=O)O)cc1)[C@H](O)c1ccc(O)cc1 | 24 |
| C[C@H](NCCc1ccc(NC(C)(C)C(=O)O)cc1Cl)[C@H](O)c1ccc(O)cc1 | 5.62 |
| C[C@H](NCCc1cc(Br)c(NCC(=O)O)c(Br)c1)[C@H](O)c1ccc(O)cc1 | 81.3 |
| C[C@H](NCCc1ccc(NCC(=O)O)c(Br)c1)[C@H](O)c1ccc(O)cc1 | 575 |
| C[C@H](NCCc1ccc(NCC(=O)O)cc1Cl)[C@H](O)c1ccc(O)cc1 | 7.24 |
| C[C@H](NCCc1ccc(N(C)CC(=O)O)cc1)[C@H](O)c1ccc(O)cc1 | 52.5 |
| C[C@H](NCCc1ccc(NCC(=O)O)c(I)c1)[C@H](O)c1ccc(O)cc1 | 813 |

The next lines start with the values.

| EC50 [nM] | SMILES |
| --- | --- |
| 0.933 | C[C@H](NCCc1ccc(NCC(=O)O)c(Cl)c1)[C@H](O)c1ccc(O)cc1 |
| 158 | C[C@H](NCCc1cc(Cl)c(N(C)CC(=O)O)c(Cl)c1)[C@H](O)c1ccc(O)cc1 |
| 457 | C[C@H](NCCc1ccc(NCC(=O)O)c(Cl)c1Cl)[C@H](O)c1ccc(O)cc1 |
| 11 | C[C@H](NCCc1ccc(N(C)CC(=O)O)c(Cl)c1)[C@H](O)c1ccc(O)cc1 |
